Target: T1, Recombinant human CETP (Homo sapiens, UniProt P11597)
T1 construct: made in house; host or cells: CHO cells (secreted into conditioned medium)
T1 sequence (P11597 18-493): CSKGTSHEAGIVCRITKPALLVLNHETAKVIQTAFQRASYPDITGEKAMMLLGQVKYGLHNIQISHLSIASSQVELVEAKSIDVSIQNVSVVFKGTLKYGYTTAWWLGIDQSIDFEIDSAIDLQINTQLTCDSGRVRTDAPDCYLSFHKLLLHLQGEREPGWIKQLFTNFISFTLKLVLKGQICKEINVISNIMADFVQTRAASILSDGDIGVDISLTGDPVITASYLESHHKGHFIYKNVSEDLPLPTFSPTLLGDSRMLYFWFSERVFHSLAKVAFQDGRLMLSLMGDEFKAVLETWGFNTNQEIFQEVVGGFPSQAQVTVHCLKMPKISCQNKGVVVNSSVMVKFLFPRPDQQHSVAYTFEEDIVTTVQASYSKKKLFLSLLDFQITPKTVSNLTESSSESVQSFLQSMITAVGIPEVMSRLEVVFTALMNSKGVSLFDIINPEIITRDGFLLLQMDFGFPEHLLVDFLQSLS
Assay: CETP in vitro assay (fluorometric assay, Roar Biomedical; cholesterol ester transfer from HDL to LDL)
Type: biochemical
Conditions: recombinant human CETP from CHO cells; 3 hours at 37° C.; fluorescence 485/535 nm; compound concentrations between 1 nM and 30 μM; read-out: IC50 values for inhibition of CETP
Method in brief: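 Fluorometric transfer assay using donor and acceptor particles with recombinant human CETP partially purified from conditioned medium of CETP-expressing CHO cells. Compound in DMSO incubated 3 hours at 37° C; fluorescence Ex 485/Em 535 nm. IC50 from dose-effect curves over 1 nM to 30 μM.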

Structure (SMILES)	IC50 [µM]
CC(C)c1nc2c(c3c1[C@@H](c1ccc(C(F)(F)F)cc1)OC31CCOCC1)[C@@H](O)CC1(CCC1)[C@H]2O [5(1), (3R,6R,9S)-4-isopropyl-7,7-(propan-1,3-diyl)-3-(4-(trifluoromethyl)phenyl)-2′,3′,5′,6,6′,7,8,9-octahydro-3H-spiro[furo[3,4-c]quinoline-1,4′-pyran]-6,9-diol]	0.078
CC(C)c1nc2c(c3c1[C@@H](c1ncc(C(F)(F)F)cc1F)OC31CCOCC1)[C@@H](O)CC(C)(C)C2 [5(2), (3S,9S)-3-(3-fluoro-5-(trifluoromethyl)pyridin-2-yl)-4-isopropyl-7,7-dimethyl-2′,3′,5′,6,6′,7,8,9-octahydro-3H-spiro[furo[3,4-c]quinoline-1,4′-pyran]-9-ol]	0.206
CC(C)c1nc2c(c3c1[C@@H](c1ccc(C(F)(F)F)cn1)OC31CCOCC1)[C@@H](O)CC(C)(C)[C@@H]2O [5(3), (3S,6S,9S)-4-isopropyl-7,7-dimethyl-3-(5-(trifluoromethyl)pyridin-2-yl)-2′,3′,5′,6,6′,7,8,9-octahydro-3H-spiro[furo[3,4-c]quinoline-1,4′-pyran]-6,9-diol]	2.69
CC(C)c1nc2c(c3c1[C@@H](c1ccc(C(F)(F)F)cn1)OC31CCOCC1)[C@@H](O)CC(C)(C)[C@H]2O [5(4), (3S,6R,9S)-4-isopropyl-7,7-dimethyl-3-(5-(trifluoromethyl)pyridin-2-yl)-2′,3′,5′,6,6′,7,8,9-octahydro-3H-spiro[furo[3,4-c]quinoline-1,4′-pyran]-6,9-diol]	0.183
CC(C)c1nc2c(c3c1[C@@H](c1ccc(C(F)(F)F)nc1)OC31CCOCC1)[C@@H](O)CC(C)(C)[C@H]2O [5(5), (3R,6R,9S)-4-isopropyl-7,7-dimethyl-3-(6-(trifluoromethyl)pyridin-3-yl)-2′,3′,5′,6,6′,7,8,9-octahydro-3H-spiro[furo[3,4-c]quinoline-1,4′-pyran]-6,9-diol]	0.418
CC(C)c1nc2c(c3c1[C@@H](c1ccc(C(F)(F)F)nc1)OC31CCOCC1)[C@@H](O)CC(C)(C)[C@@H]2O [5(7), (3R,6S,9S)-4-isopropyl-7,7-dimethyl-3-(6-(trifluoromethyl)pyridin-3-yl)-2′,3′,5′,6,6′,7,8,9-octahydro-3H-spiro[furo[3,4-c]quinoline-1,4′-pyran]-6,9-diol]	4.12
O[C@H]1CC2(CCC2)[C@@H](O)c2nc(C3CCOCC3)c3c(c21)C1(CCOCC1)O[C@@H]3c1ccc(C(F)(F)F)cn1 [6(1), (3S,6R,9S)-7,7-(propan-1,3-diyl)-4-(tetrahydro-2H-pyran-4-yl)-3-(5-(trifluoromethyl)pyridin-2-yl)-2′,3′,5′,6,6′,7,8,9-octahydro-3H-spiro[furo[3,4-c]quinoline-1,4′-pyran]-6,9-diol]	1.22
CC1(C)C[C@H](O)c2c(nc(C3CCOCC3)c3c2C2(CCOCC2)O[C@@H]3c2ccc(C(F)(F)F)nc2)[C@@H]1O [6(2), (3R,6R,9S)-7,7-dimethyl-4-(tetrahydro-2H-pyran-4-yl)-3-(6-(trifluoromethyl)pyridin-3-yl)-2′,3′,5′,6,6′,7,8,9-octahydro-3H-spiro[furo[3,4-c]quinoline-1,4′-pyran]-6,9-diol]	1.54
CC(C)c1nc2c(c3c1[C@@H](c1ccc(C(F)(F)F)cc1F)OC31CCOCC1)[C@@H](O)CC(C)(C)[C@@H]2O [Example 6, (3S,6S,9S)-3-(2-fluoro-4-(trifluoromethyl)phenyl)-4-isopropyl-7,7-dimethyl-2′,3′,5′,6,6′,7,8,9-octahydro-3H-spiro[furo[3,4-c]quinoline-1,4′-pyran]-6,9-diol]	0.41

Now those with a lower IC50, led by results:

IC50 [µM]	Structure (SMILES)
0.027	CC(C)c1nc2c(c3c1[C@@H](c1ccc(C(F)(F)F)c(C#N)c1)OC31CCOCC1)[C@@H](O)CC(C)(C)[C@H]2O [4(15), 5-((3R,6R,9S)-6,9-dihydroxy-4-isopropyl-7,7-dimethyl-2′,3′,5′,6,6′,7,8,9-octahydro-3H-spiro[furo[3,4-c]quinoline-1,4′-pyran]-3-yl)-2-(trifluoromethyl)benzonitrile]
0.044	O[C@H]1CC2(CCC2)[C@@H](O)c2nc(C3CCOCC3)c3c(c21)C1(CCOCC1)O[C@@H]3c1ccc(C(F)(F)F)cc1 [4(16), (3R,6R,9S)-7,7-(propan-1,3-diyl)-4-(tetrahydro-2H-pyran-4-yl)-3-(4-(trifluoromethyl)phenyl)-2′,3′,5′,6,6′,7,8,9-octahydro-3H-spiro[furo[3,4-c]quinoline-1,4′-pyran]-6,9-diol]
0.013	CC(C)c1nc2c(c3c1[C@@H](c1ccc(C(F)(F)F)c(F)c1)OC31CCOCC1)[C@@H](O)CC(C)(C)[C@H]2O [5(6), (3R,6R,9S)-3-(3-fluoro-4-(trifluoromethyl)phenyl)-4-isopropyl-7,7-dimethyl-2′,3′,5′,6,6′,7,8,9-octahydro-3H-spiro[furo[3,4-c]quinoline-1,4′-pyran]-6,9-diol]
0.042	CC(C)c1nc2c(c3c1[C@@H](c1ccc(C(F)(F)F)cn1)OC31CCOCC1)[C@@H](O)CC1(CCC1)[C@H]2O [5(8), (3S,6R,9S)-4-isopropyl-7,7-(propan-1,3-diyl)-3-(5-(trifluoromethyl)pyridin-2-yl)-2′,3′,5′,6,6′,7,8,9-octahydro-3H-spiro[furo[3,4-c]quinoline-1,4′-pyran]-6,9-diol]
0.013	CC(C)c1nc2c(c3c1[C@@H](c1ccc(C(F)(F)F)nc1)OC31CCOCC1)[C@@H](O)CC1(CCC1)[C@H]2O [Example 5, (3R,6R,9S)-4-isopropyl-7,7-(propan-1,3-diyl)-3-(6-(trifluoromethyl)pyridin-3-yl)-2′,3′,5′,6,6′,7,8,9-octahydro-3H-spiro[furo[3,4-c]quinoline-1,4′-pyran]-6,9-diol]

From US9029544B2, “Tricyclic pyridine derivatives, medicaments containing such compounds, their use and process for their preparation” (Boehringer Ingelheim International GmbH, priority 2010, dated 2015)
